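Growth conditions: 96-well plates. Treatment: test compound, 48 hours, 5 concentrations. Analysis: linear interpolation between bracketing concentrations; unreached endpoints set to highest concentration. Here, GI50 denotes the concentration required for 50% inhibition of growth. At the TGI there is no net growth.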 Bounds are passed on as bounds.

Here are results for 20 molecules from PubChem BioAssay (NCI).

One assay deals with COLO 205 colon. As to the kind of experiment: inhibition of tumour cell growth, NCI panel, 48 h.
In turn, `CNC(=O)Oc1ccc(-c2cn3cc(OC(=O)NC)ccc3n2)cc1` gave a TGI of more than 100 µM.

Consider `CC(=O)N1N=C(c2ccc3ccccc3c2O)CC1C(=O)c1ccco1` (centres undefined), for which the TGI was 67.6 µM.

`N#Cc1nc(-c2cccs2)oc1N`: the TGI was more than 100 µM.

The molecule `O=c1[nH]/c(=C/c2ccc(OCc3ccccc3)cn2)c(=O)[nH]/c1=C/c1ccc(O)cc1` yielded a TGI of 10.3 µM.

In turn, `OCC1OC(n2cnc3c(Cl)nc(Nc4ccccc4)nc32)CC1O` (centres undefined) displayed a TGI of more than 100 µM.

As to `C[C@]12CCc3nc(Nc4ccccc4)sc3C1=CC[C@@H]1[C@@H]2CC[C@]2(C)/C(=N/NC(N)=S)CC[C@@H]12`, the GI50 was 4.49 µM and the TGI was more than 100 µM.

For `NCCSc1nc2ccccc2c(=O)n1-c1ccccc1`, the TGI is more than 100 µM.

`COC(=O)C1=CC(=O)OC1(OO)c1ccccc1` (centres undefined) returned a TGI of more than 100 µM.

Molecule `Cc1cc(C2(O)C=C(C(C)(C)C)C(=O)C(C(C)(C)C)=C2)c(C)cc1C1(O)C=C(C(C)(C)C)C(=O)C(C(C)(C)C)=C1` came in with a TGI of more than 100 µM.

In turn, `CC1=NN(c2ccc(S(=O)(=O)O)cc2)C2(C1)SCC(=O)N2c1nc2ccccc2s1` (centres undefined) returned a TGI of more than 100 µM.

The molecule `CC(=O)O[C@H]1C#C/C=C\C#CC[C@@H]2C(=O)N[C@@H]12` yielded a TGI of more than 100 µM.

For the molecule `Cc1ccc2nc(Cl)c(/C=N/N3C(=O)/C(=C/c4ccccc4S)N=C3c3ccccc3)cc2c1`, the TGI is more than 100 µM.

With `CCCSc1ccc2[nH]c(/N=C/c3ccco3)cc2c1`, the TGI was 49.7 µM.

Another assay has as its system HCT-116 colon. As to the kind of experiment: inhibition of tumour cell growth, NCI panel, 48 h.
Consider `CCC1(C(=O)OC(C)(C)C)OC12C(C)CCCC2C` (centres undefined), for which the TGI was more than 100 µM.

For `Cc1ccc(-c2cc(N)n(-c3nc4c(c(=O)n(C)c(=O)n4C)n3C)n2)cc1`, the TGI is more than 100 µM.

The molecule `CN(C)c1ccc(C2SCC(=O)N2NS(=O)(=O)c2cccc(C(=O)O)c2)cc1` (centres undefined) showed a TGI of more than 100 µM.

`CC1CCOc2ccc(cc2)C=Nc2ccc(cc2)CCc2ccc(cc2)N=Cc2ccc(cc2)OCC1` (centres undefined) registered a TGI of more than 100 µM.

The molecule `COC(=O)[C@H](Cc1ccccc1)NC(=O)[C@H](Cc1ccccc1)NC(=O)[C@@H]1CCCN1C(=O)N[C@H]1C2C=CC(C2)C1C(=O)N1CCC[C@H]1C(=O)N[C@@H](C)C(=O)N[C@H](C(=O)OC)C(C)C` (some centres undefined) had a TGI of more than 100 µM.

`O=C1c2ccccc2-c2nc(-c3cccc([N+](=O)[O-])c3)nnc21` gave a TGI of more than 100 µM.

`CNC(=O)Oc1ccc(-c2cn3cc(OC(=O)NC)ccc3n2)cc1`: the TGI is more than 100 µM.

In turn, `CC(=O)N1N=C(c2ccc3ccccc3c2O)CC1C(=O)c1ccco1` (centres undefined) registered a TGI of more than 100 µM.

For the molecule `N#Cc1nc(-c2cccs2)oc1N`, the TGI was more than 100 µM.

Regarding `O=c1[nH]/c(=C/c2ccc(OCc3ccccc3)cn2)c(=O)[nH]/c1=C/c1ccc(O)cc1`, the TGI was more than 69.6 µM.

Turning to `O=C(OCC1OC2OC(c3ccccc3)(n3ccc4c([N+](=O)[O-])ccnc43)OC2C1OC(=O)c1ccccc1)c1ccccc1` (centres undefined), the TGI is more than 100 µM.

`OCC1OC(n2cnc3c(Cl)nc(Nc4ccccc4)nc32)CC1O` (centres undefined) gave a TGI of more than 100 µM.

For the molecule `NCCSc1nc2ccccc2c(=O)n1-c1ccccc1`, the TGI was more than 100 µM.

Turning to `COC(=O)C1=CC(=O)OC1(OO)c1ccccc1` (centres undefined), the TGI is more than 100 µM.

`Cc1cc(C2(O)C=C(C(C)(C)C)C(=O)C(C(C)(C)C)=C2)c(C)cc1C1(O)C=C(C(C)(C)C)C(=O)C(C(C)(C)C)=C1` gave a TGI of more than 100 µM.

Regarding `CC1=NN(c2ccc(S(=O)(=O)O)cc2)C2(C1)SCC(=O)N2c1nc2ccccc2s1` (centres undefined), the TGI was more than 100 µM.

The molecule `CC(=O)O[C@H]1C#C/C=C\C#CC[C@@H]2C(=O)N[C@@H]12` yielded a TGI of more than 100 µM.

In turn, `Cc1ccc2nc(Cl)c(/C=N/N3C(=O)/C(=C/c4ccccc4S)N=C3c3ccccc3)cc2c1` displayed a TGI of more than 100 µM.

The molecule `CCCSc1ccc2[nH]c(/N=C/c3ccco3)cc2c1` came in with a TGI of more than 100 µM.

In the next assay the test system is HOP-62 NSCLC. The assay is described as follows: inhibition of tumour cell growth, NCI panel, 48 h.
`CCC1(C(=O)OC(C)(C)C)OC12C(C)CCCC2C` (centres undefined) returned a TGI of more than 100 µM.

On to `Cc1ccc(-c2cc(N)n(-c3nc4c(c(=O)n(C)c(=O)n4C)n3C)n2)cc1`, for which the TGI turned out to be 63.9 µM.

In the case of `CN(C)c1ccc(C2SCC(=O)N2NS(=O)(=O)c2cccc(C(=O)O)c2)cc1` (centres undefined), the TGI was more than 100 µM.

As for `CC1CCOc2ccc(cc2)C=Nc2ccc(cc2)CCc2ccc(cc2)N=Cc2ccc(cc2)OCC1` (centres undefined), the TGI is more than 100 µM.

`COC(=O)[C@H](Cc1ccccc1)NC(=O)[C@H](Cc1ccccc1)NC(=O)[C@@H]1CCCN1C(=O)N[C@H]1C2C=CC(C2)C1C(=O)N1CCC[C@H]1C(=O)N[C@@H](C)C(=O)N[C@H](C(=O)OC)C(C)C` (some centres undefined) had a TGI of more than 100 µM.

The molecule `CNC(=O)Oc1ccc(-c2cn3cc(OC(=O)NC)ccc3n2)cc1` gave a TGI of more than 100 µM.

With `CC(=O)N1N=C(c2ccc3ccccc3c2O)CC1C(=O)c1ccco1` (centres undefined), the TGI is more than 100 µM.

The molecule `N#Cc1nc(-c2cccs2)oc1N` had a TGI of more than 100 µM.

In the case of `O=c1[nH]/c(=C/c2ccc(OCc3ccccc3)cn2)c(=O)[nH]/c1=C/c1ccc(O)cc1`, the TGI was more than 100 µM.

On to `O=C(OCC1OC2OC(c3ccccc3)(n3ccc4c([N+](=O)[O-])ccnc43)OC2C1OC(=O)c1ccccc1)c1ccccc1` (centres undefined), for which the TGI is more than 100 µM.

The molecule `OCC1OC(n2cnc3c(Cl)nc(Nc4ccccc4)nc32)CC1O` (centres undefined) showed a TGI of more than 100 µM.

Turning to `C[C@]12CCc3nc(Nc4ccccc4)sc3C1=CC[C@@H]1[C@@H]2CC[C@]2(C)/C(=N/NC(N)=S)CC[C@@H]12`, the GI50 was 17.6 µM and the TGI was more than 100 µM.

`NCCSc1nc2ccccc2c(=O)n1-c1ccccc1` yielded a TGI of more than 100 µM.

`Cc1cc(C2(O)C=C(C(C)(C)C)C(=O)C(C(C)(C)C)=C2)c(C)cc1C1(O)C=C(C(C)(C)C)C(=O)C(C(C)(C)C)=C1` showed a TGI of more than 100 µM.

The molecule `CC1=NN(c2ccc(S(=O)(=O)O)cc2)C2(C1)SCC(=O)N2c1nc2ccccc2s1` (centres undefined) yielded a TGI of more than 100 µM.
